Test results: the NIST ThermoML archive (doi:10.1016/j.tca.2016.08.021)

Tests used:
[1] = 100 kPa, Liquid; for viscosity: Capillary tube (Ostwald / Ubbelohde) method; for mass density: Vibrating tube method
[2] = xn = mol fraction of the nth substance listed; conditions: 100 kPa, Liquid; for viscosity: Capillary tube (Ostwald / Ubbelohde) method; for mass density: Vibrating tube method

CCNCCO [2-(ethylamino)ethanol]
[1]
Conditions	mass density [kg/m3]	viscosity [mPa·s]
293.15 K	916.8	15.39
303.15 K	909.7	9.65
313.15 K	901.3	6.64
323.15 K	894.7	4.53
333.15 K	887.2	3.36

CCNCCO [2-(ethylamino)ethanol] + CCN(CC)CCO
[2]
Conditions	mass density, 293.15 K [kg/m3]	mass density, 303.15 K [kg/m3]	mass density, 313.15 K [kg/m3]	mass density, 323.15 K [kg/m3]	mass density, 333.15 K [kg/m3]	viscosity, 293.15 K [mPa·s]	viscosity, 303.15 K [mPa·s]	viscosity, 313.15 K [mPa·s]	viscosity, 323.15 K [mPa·s]	viscosity, 333.15 K [mPa·s]
x2 = 0	916.8	909.7	901.3	894.7	887.2	15.39	9.65	6.64	4.53	3.36
x2 = 0.2	910	903	894.8	887.8	880.6	12.19	7.84	5.35	3.85	2.88
x2 = 0.4	903	895.5	887.6	880	872.1	9.87	6.51	4.5	3.3	2.48
x2 = 0.6	897	889	880.2	872.2	864.3	8.04	5.4	3.78	2.8	2.14
x2 = 0.8	889.7	881.6	873	864.6	856.4	6.36	4.36	3.11	2.31	1.79

CCNCCO [2-(ethylamino)ethanol] + O
[2]
Conditions	mass density, 293.15 K [kg/m3]	mass density, 303.15 K [kg/m3]	mass density, 313.15 K [kg/m3]	mass density, 323.15 K [kg/m3]	mass density, 333.15 K [kg/m3]	viscosity, 293.15 K [mPa·s]	viscosity, 303.15 K [mPa·s]	viscosity, 313.15 K [mPa·s]	viscosity, 323.15 K [mPa·s]	viscosity, 333.15 K [mPa·s]
x2 = 0	916.8	909.7	901.3	894.7	887.2	15.39	9.65	6.64	4.53	3.36
x2 = 0.2	929.5	922.4	914	907.4	898.6	23.82	14.54	9.29	6.23	4.52
x2 = 0.4	943.1	936.1	927.8	920.7	912	31.73	18.56	11.41	7.3	5.03
x2 = 0.6	961.6	954.8	946	938.7	931.1	31.02	17.34	10.71	7.08	4.68
x2 = 0.8	985.7	979.5	972.5	963	955.6	13.83	8.34	5.44	3.73	2.69

CCN(CC)CCO [(diethylamino)ethanol]
[1]
Conditions	mass density [kg/m3]	viscosity [mPa·s]
293.15 K	883.5	4.81
303.15 K	875.1	3.37
313.15 K	866.2	2.46
323.15 K	857.5	1.86
333.15 K	849.2	1.46

CCN(CC)CCO [(diethylamino)ethanol] + CCNCCO
[2], x1 = 1
Conditions	mass density [kg/m3]	viscosity [mPa·s]
293.15 K	883.5	4.81
303.15 K	875.1	3.37
313.15 K	866.2	2.46
323.15 K	857.5	1.86
333.15 K	849.2	1.46

O [water] + CCNCCO
[2], x1 = 1
Conditions	mass density [kg/m3]	viscosity [mPa·s]
293.15 K	998	1.01
303.15 K	995.1	0.8
313.15 K	–	0.65
323.15 K	989.2	0.55
333.15 K	985	0.47
